Results taken from the supplement of paper PMC10627819.

Columns and labels:
Settings in all cases: main component drawn
B. subtilis 168 [1] = experiment: fitness (endpoint OD595 vs no drug) (fraction); higher = more growth
Procedure, shortened: (§1)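 Growth medium was TSB, LB Lennox or CY, and plates were kept at 37 °C. Inoculation was at OD595 0.01 in 384-well plates, at 30 µl per well or 55 µl for S. pneumoniae. OD595 was monitored every 30 min for 14 h and background-subtracted using the first reading. Fitness is the optical density on entering stationary phase divided by the robust mean of no-drug controls, with values capped at 1.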

S. aureus Newman [2] = experiment: as above
Procedure, shortened: as §1

B. subtilis 168 [3] = experiment: Bliss interaction score (quartile over a dose matrix) (fitness difference); higher = more antagonism (negative = synergy)
Procedure, shortened: (§2)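 Combination data were used to infer fitness under each single drug. Fitness is the OD595 at entry into stationary phase divided by the robust mean of the plate's no-drug wells, with a cap of 1. The Bliss score is the observed minus the expected product fitness, summarised by quartiles over technical, biological and donor/recipient replicates.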

S. aureus DSM 20231 = experiment: as above
Procedure, shortened: as §2

S. aureus Newman [4] = experiment: as above
Procedure, shortened: as §2

S. pneumoniae D39V = experiment: as above
Procedure, shortened: as §2
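Throughout, for Bliss interaction score (quartile over a dose matrix): first quartile when negative (synergy) and third quartile when positive (antagonism).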

CC[C@H](C)[C@H](N)C1=N[C@H](C(=O)N[C@@H](CC(C)C)C(=O)N[C@H](CCC(=O)O)C(=O)N[C@H](C(=O)N[C@H]2CCCCNC(=O)[C@H](CC(N)=O)NC(=O)[C@@H](CC(=O)O)NC(=O)[C@H](Cc3cnc[nH]3)NC(=O)[C@@H](Cc3ccccc3)NC(=O)[C@H]([C@@H](C)CC)NC(=O)[C@@H](CCCN)NC2=O)[C@@H](C)CC)CS1 [Bacitracin] + CO/N=C(\C(=O)N[C@@H]1C(=O)N2C(C(=O)O)=C(COC(N)=O)CS[C@H]12)c1ccco1 [Cefuroxime]
fitness, B. subtilis 168 [1]
Settings	first compound 37.5 µg/mL	first compound 75 µg/mL	first compound 150 µg/mL
partner 0.04875 µg/mL	0.691	0.612	–
partner 0.0975 µg/mL	0.629	0.529	0.275
partner 0.195 µg/mL	0.338	0.334	0.0599

fitness, one replicate
Settings	partner 0.04875 µg/mL	partner 0.0975 µg/mL	partner 0.195 µg/mL	partner 0.39 µg/mL	partner 0.78 µg/mL	partner 1.562 µg/mL	partner 3.125 µg/mL	partner 6.25 µg/mL
B. subtilis 168 [1], first compound 37.5 µg/mL	–	–	–	0.293	0.266	0.419	0.351	0.269
B. subtilis 168 [1], first compound 75 µg/mL	–	–	–	0.089	0.0839	0.352	0.323	0.257
B. subtilis 168 [1], first compound 150 µg/mL	–	–	–	0.0217	0.0185	0.306	0.238	0.155
S. aureus Newman [2], first compound 18.75 µg/mL	0.634	0.599	0.287	–	–	–	–	–
S. aureus Newman [2], first compound 37.5 µg/mL	0.0709	0.0498	0.025	–	–	–	–	–
S. aureus Newman [2], first compound 75 µg/mL	0.0097	0.0027	0.0172	–	–	–	–	–

Settings	Bliss interaction score
B. subtilis 168 [3]	-0.0903
S. aureus DSM 20231	-0.188
S. aureus Newman [4]	-0.0659
S. pneumoniae D39V	0.0554

CC[C@H](C)[C@H](N)C1=N[C@H](C(=O)N[C@@H](CC(C)C)C(=O)N[C@H](CCC(=O)O)C(=O)N[C@H](C(=O)N[C@H]2CCCCNC(=O)[C@H](CC(N)=O)NC(=O)[C@@H](CC(=O)O)NC(=O)[C@H](Cc3cnc[nH]3)NC(=O)[C@@H](Cc3ccccc3)NC(=O)[C@H]([C@@H](C)CC)NC(=O)[C@@H](CCCN)NC2=O)[C@@H](C)CC)CS1 [Bacitracin] + COc1c(N2C[C@@H]3CCCN[C@@H]3C2)c(F)cc2c(=O)c(C(=O)O)cn(C3CC3)c12 [Moxifloxacin]
fitness
Settings	partner 0.0075 µg/mL	partner 0.015 µg/mL	partner 0.03 µg/mL	partner 0.0312 µg/mL	partner 0.0625 µg/mL	partner 0.125 µg/mL	partner 2 µg/mL	partner 4 µg/mL	partner 8 µg/mL
B. subtilis 168 [1], first compound 37.5 µg/mL	–	–	–	0.0427	0.0342	0.0345	0.0202	0.0156	0.0081
B. subtilis 168 [1], first compound 75 µg/mL	–	–	–	0.022	0.026	0.0158	0.0179	0.0161	0.009
B. subtilis 168 [1], first compound 150 µg/mL	–	–	–	0.019	0.0046	0.0203	0.0204	0.0121	0.0111
S. aureus Newman [2], first compound 18.75 µg/mL	0.614	0.482	0.0523	–	–	–	–	–	–
S. aureus Newman [2], first compound 37.5 µg/mL	0.133	0.0255	0.0043	–	–	–	–	–	–
S. aureus Newman [2], first compound 75 µg/mL	0.0091	0.0053	0.0025	–	–	–	–	–	–

Settings	Bliss interaction score
B. subtilis 168 [3]	-0.0316
S. aureus DSM 20231	0.0317
S. aureus Newman [4]	-0.078
S. pneumoniae D39V	0.0806

CC[C@H](C)[C@H](N)C1=N[C@H](C(=O)N[C@@H](CC(C)C)C(=O)N[C@H](CCC(=O)O)C(=O)N[C@H](C(=O)N[C@H]2CCCCNC(=O)[C@H](CC(N)=O)NC(=O)[C@@H](CC(=O)O)NC(=O)[C@H](Cc3cnc[nH]3)NC(=O)[C@@H](Cc3ccccc3)NC(=O)[C@H]([C@@H](C)CC)NC(=O)[C@@H](CCCN)NC2=O)[C@@H](C)CC)CS1 [Bacitracin] + COc1ccc(C[C@H](N)C(=O)N[C@H]2[C@@H](O)[C@H](n3cnc4c(N(C)C)ncnc43)O[C@@H]2CO)cc1 [Puromycin]
fitness
Settings	first compound 18.75 µg/mL	first compound 37.5 µg/mL	first compound 75 µg/mL	first compound 150 µg/mL
B. subtilis 168 [1], partner 0.39 µg/mL	–	0.901	0.875	0.793
B. subtilis 168 [1], partner 0.78 µg/mL	–	0.959	0.958	–
B. subtilis 168 [1], partner 1.56 µg/mL	–	0.903	0.881	–
S. aureus Newman [2], partner 0.39 µg/mL	0.693	–	0.0319	–
S. aureus Newman [2], partner 0.78 µg/mL	0.687	0.197	0.0272	–
S. aureus Newman [2], partner 1.56 µg/mL	0.685	0.0934	0.0307	–

Settings	Bliss interaction score
B. subtilis 168 [3]	0.0815
S. aureus DSM 20231	-0.0671
S. aureus Newman [4]	-0.0486
S. pneumoniae D39V	0.048

CC[C@H](C)[C@H](N)C1=N[C@H](C(=O)N[C@@H](CC(C)C)C(=O)N[C@H](CCC(=O)O)C(=O)N[C@H](C(=O)N[C@H]2CCCCNC(=O)[C@H](CC(N)=O)NC(=O)[C@@H](CC(=O)O)NC(=O)[C@H](Cc3cnc[nH]3)NC(=O)[C@@H](Cc3ccccc3)NC(=O)[C@H]([C@@H](C)CC)NC(=O)[C@@H](CCCN)NC2=O)[C@@H](C)CC)CS1 [Bacitracin] + COc1cccc2c1C(=O)c1c(O)c3c(c(O)c1C2=O)C[C@@](O)(C(=O)CO)C[C@@H]3O[C@H]1C[C@H](N)[C@H](O)[C@H](C)O1 [Doxorubicin]
fitness
Settings	partner 0.625 µg/mL	partner 1.25 µg/mL	partner 2.5 µg/mL
B. subtilis 168 [1], first compound 37.5 µg/mL	0.889	0.851	0.686
B. subtilis 168 [1], first compound 75 µg/mL	0.827	0.792	–
B. subtilis 168 [1], first compound 150 µg/mL	0.691	0.653	–
S. aureus Newman [2], first compound 18.75 µg/mL	0.607	0.598	0.513
S. aureus Newman [2], first compound 75 µg/mL	0.0711	0.0343	0.0074

Settings	Bliss interaction score
B. subtilis 168 [3]	0.0797
S. aureus DSM 20231	0.115
S. aureus Newman [4]	0.0938
S. pneumoniae D39V	-0.0704

CC[C@H](C)[C@H](N)C1=N[C@H](C(=O)N[C@@H](CC(C)C)C(=O)N[C@H](CCC(=O)O)C(=O)N[C@H](C(=O)N[C@H]2CCCCNC(=O)[C@H](CC(N)=O)NC(=O)[C@@H](CC(=O)O)NC(=O)[C@H](Cc3cnc[nH]3)NC(=O)[C@@H](Cc3ccccc3)NC(=O)[C@H]([C@@H](C)CC)NC(=O)[C@@H](CCCN)NC2=O)[C@@H](C)CC)CS1 [Bacitracin] + C[C@@H]1O[C@@H]1P(=O)(O)O [Fosfomycin]
fitness
Settings	first compound 18.75 µg/mL	first compound 37.5 µg/mL	first compound 75 µg/mL	first compound 150 µg/mL
B. subtilis 168 [1], partner 1.562 µg/mL	–	0.697	0.662	0.607
B. subtilis 168 [1], partner 3.124 µg/mL	–	0.61	0.594	0.488
B. subtilis 168 [1], partner 6.248 µg/mL	–	0.501	0.51	0.427
S. aureus Newman [2], partner 0.781 µg/mL	0.507	0.0984	0.0911	–
S. aureus Newman [2], partner 1.562 µg/mL	0.471	–	0.0362	–
S. aureus Newman [2], partner 3.124 µg/mL	0.174	0.0141	0.0222	–

Settings	Bliss interaction score
B. subtilis 168 [3]	0.0941
S. aureus DSM 20231	0.109
S. aureus Newman [4]	0.102
S. pneumoniae D39V	-0.0469

CC[C@H](C)[C@H](N)C1=N[C@H](C(=O)N[C@@H](CC(C)C)C(=O)N[C@H](CCC(=O)O)C(=O)N[C@H](C(=O)N[C@H]2CCCCNC(=O)[C@H](CC(N)=O)NC(=O)[C@@H](CC(=O)O)NC(=O)[C@H](Cc3cnc[nH]3)NC(=O)[C@@H](Cc3ccccc3)NC(=O)[C@H]([C@@H](C)CC)NC(=O)[C@@H](CCCN)NC2=O)[C@@H](C)CC)CS1 [Bacitracin] + C[n+]1ccc(-c2cc[n+](C)cc2)cc1 [Paraquat]
fitness
Settings	first compound 18.75 µg/mL	first compound 37.5 µg/mL	first compound 75 µg/mL	first compound 150 µg/mL
B. subtilis 168 [1], partner 1.25 µg/mL	–	0.931	0.924	0.844
B. subtilis 168 [1], partner 2.5 µg/mL	–	0.886	0.846	0.826
B. subtilis 168 [1], partner 5 µg/mL	–	0.746	0.656	–
S. aureus Newman [2], partner 1.25 µg/mL	0.673	0.276	0.0637	–
S. aureus Newman [2], partner 2.5 µg/mL	0.725	0.315	0.0696	–
S. aureus Newman [2], partner 5 µg/mL	0.669	0.349	0.0708	–

Settings	Bliss interaction score
B. subtilis 168 [3]	0.115
S. aureus DSM 20231	-0.0542
S. aureus Newman [4]	0.0836
S. pneumoniae D39V	0.0921
